Results reported in PubChem BioAssay AID248 (DTP/NCI, 2004).
Values joined by “and” are separate entries in the source; they are usually repeats but may differ in a detail not shown here. Equal values may be shown once. Toxic doses and inconclusive results are not listed. Rule as the data show it: active = T/C of 150% or more; inactive = T/C below 125%.

System: L1210 leukemia ip in BDF1 mice, survival T/C
Assay: NCI In Vivo Anticancer Drug Screen. Data for tumor model L1210 Leukemia (intraperitoneal) in B6D2F1 (BDF1) mice
Conditions: endpoint: mean survival time, higher = longer survival
Procedure, shortened: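 Each compound was tested against a transplantable tumor grown in mice. The endpoint was survival, with treated animals benchmarked against vehicle controls as a simple ratio.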

[1] = dose: 100.0 mg/kg/injection, schedule: Q01DX009 (ip), vehicle: Klucel (hydroxypropylcellulose) (HPC)
[2] = dose: 100.0 mg/kg/injection, schedule: Q04DX003 (ip), vehicle: Klucel (hydroxypropylcellulose) (HPC)
[3] = dose: 200.0 mg/kg/injection, schedule: Q01DX009 (ip), vehicle: Klucel (hydroxypropylcellulose) (HPC)
[4] = dose: 200.0 mg/kg/injection, schedule: Q04DX003 (ip), vehicle: Klucel (hydroxypropylcellulose) (HPC)
[5] = dose: 400.0 mg/kg/injection, schedule: Q01DX009 (ip), vehicle: Klucel (hydroxypropylcellulose) (HPC)
[6] = dose: 400.0 mg/kg/injection, schedule: Q04DX003 (ip), vehicle: Klucel (hydroxypropylcellulose) (HPC)
[7] = dose: 50.0 mg/kg/injection, schedule: Q01DX009 (ip), vehicle: Klucel (hydroxypropylcellulose) (HPC)
[8] = dose: 100.0 mg/kg/injection, schedule: Q01DX009 (ip), vehicle: saline
[9] = dose: 200.0 mg/kg/injection, schedule: Q01DX009 (ip), vehicle: saline
[10] = dose: 100.0 mg/kg/injection, schedule: Q01DX001 (ip), vehicle: saline
[11] = dose: 400.0 mg/kg/injection, schedule: Q01DX001 (ip), vehicle: saline
[12] = dose: 100.0 mg/kg/injection, schedule: Q04DX003 (ip), vehicle: saline with Tween-80
[13] = dose: 200.0 mg/kg/injection, schedule: Q04DX003 (ip), vehicle: saline with Tween-80
[14] = dose: 400.0 mg/kg/injection, schedule: Q04DX003 (ip), vehicle: saline with Tween-80

Measured: T/C

CC1OC(OC2C(O[C@H]3CC[C@@]4(C)C(=CC[C@H]5[C@@H]6C[C@@H]7O[C@]8(CC[C@H](C)CN8)[C@@H](C)[C@@H]7[C@@]6(C)CC[C@@H]54)C3)OC(CO)C(O)C2OC2OC(CO)C(O)C(O)C2O)C(O)C(O)C1O (some centres undefined)
inactive: dose: 5.0 mg/kg/injection, schedule: Q01DX001 (ip), vehicle: other 97 % of control | dose: 10.0 mg/kg/injection, schedule: Q01DX001 (ip), vehicle: other 109 % of control | dose: 20.0 mg/kg/injection, schedule: Q01DX001 (ip), vehicle: other 106 % of control

CC(=O)OCC1C2c3ccccc3C(c3ccccc32)C1CBr (centres undefined)
inactive: [1] 91 % of control | [2] 93 % of control | [3] 94 % of control | [4] 94 % of control | [5] 88 % of control | [6] 98 % of control

COc1ccc(Cc2ccccc2)c(O)c1
inactive: dose: 100.0 mg/kg/injection, schedule: Q01DX009 (ip), vehicle: other 93 % of control | dose: 100.0 mg/kg/injection, schedule: Q04DX003 (ip), vehicle: other 99 % of control | dose: 200.0 mg/kg/injection, schedule: Q01DX009 (ip), vehicle: other 111 % of control | dose: 200.0 mg/kg/injection, schedule: Q04DX003 (ip), vehicle: other 97 % of control | dose: 400.0 mg/kg/injection, schedule: Q04DX003 (ip), vehicle: other 91 % of control

Fc1c(Cl)c(Cl)c(Cl)c(Cl)c1Cl
inactive: dose: 100.0 mg/kg/injection, schedule: Q01DX009 (ip), vehicle: saline sonified 110 % of control | [2] 96 % of control | dose: 200.0 mg/kg/injection, schedule: Q01DX009 (ip), vehicle: saline sonified 100 % of control | [4] 97 % of control | dose: 400.0 mg/kg/injection, schedule: Q01DX009 (ip), vehicle: saline sonified 95 % of control | [6] 96 % of control

C[N+](C)(Cc1ccccc1)C1c2ccccc2-c2ccccc21
inactive: dose: 0.5 mg/kg/injection, schedule: Q04DX002 (ip), vehicle: Klucel (hydroxypropylcellulose) (HPC) 109 % of control | dose: 1.0 mg/kg/injection, schedule: Q04DX002 (ip), vehicle: Klucel (hydroxypropylcellulose) (HPC) 109 % of control | dose: 2.0 mg/kg/injection, schedule: Q04DX002 (ip), vehicle: Klucel (hydroxypropylcellulose) (HPC) 109 % of control

C#CC(OC(=O)NC)(c1ccccc1)c1ccc(OC)cc1 (centres undefined)
inactive: dose: 6.25 mg/kg/injection, schedule: Q01DX009 (ip), vehicle: Klucel (hydroxypropylcellulose) (HPC) 112 % of control | dose: 11.0 mg/kg/injection, schedule: Q01DX006 (ip), vehicle: Klucel (hydroxypropylcellulose) (HPC) 120 % of control | dose: 12.5 mg/kg/injection, schedule: Q01DX009 (ip), vehicle: Klucel (hydroxypropylcellulose) (HPC) 114 % of control | dose: 25.0 mg/kg/injection, schedule: Q01DX006 (ip), vehicle: Klucel (hydroxypropylcellulose) (HPC) 115 % of control | dose: 37.0 mg/kg/injection, schedule: Q01DX006 (ip), vehicle: Klucel (hydroxypropylcellulose) (HPC) 109 % of control | [7] 119 % of control | [2] 111 % of control

Cn1c2c(c3ccccc3c1=O)C(=O)c1ccccc1-2
inactive: dose: 50.0 mg/kg/injection, schedule: Q01DX001 (ip), vehicle: carboxymethylcellulose (CMC) 94 % of control | dose: 100.0 mg/kg/injection, schedule: Q01DX001 (ip), vehicle: carboxymethylcellulose (CMC) 94 % of control | dose: 200.0 mg/kg/injection, schedule: Q01DX001 (ip), vehicle: carboxymethylcellulose (CMC) 91 % of control | dose: 400.0 mg/kg/injection, schedule: Q01DX001 (ip), vehicle: carboxymethylcellulose (CMC) 91 % of control

NCCCNc1ccccc1
inactive: [8] 92 % of control | [9] 98 % of control

CCC1OCCN1C(C)C (centres undefined)
inactive: dose: 26.0 mg/kg/injection, schedule: Q01DX Z (ip), vehicle: other 105 % of control | dose: 90.0 mg/kg/injection, schedule: Q01DX Z (ip), vehicle: other 111 % of control | [10] 102 % of control and 104 % of control | dose: 135.0 mg/kg/injection, schedule: Q01DX Z (ip), vehicle: other 95 % of control | dose: 200.0 mg/kg/injection, schedule: Q01DX001 (ip), vehicle: saline 96 % of control and 104 % of control | [11] 92 % of control and 93 % of control

c1ccc2c(c1)OB(C1CCCC1)O2
inactive: [2] 95 % of control | [4] 93 % of control | [6] 100 % of control

CC(C)C(C=O)(CCN(C)Cc1ccccc1)c1cccc2ccccc12 (centres undefined)
inactive: [12] 93 % of control | [13] 92 % of control | [14] 100 % of control

O=C(Nc1ccc(Cl)cc1[N+](=O)[O-])Oc1ccc(Cl)cc1Cc1ccccc1
inactive: dose: 50.0 mg/kg/injection, schedule: Q04DX003 (ip), vehicle: saline with Tween-80 116 % of control | dose: 100.0 mg/kg/injection, schedule: Q01DX001 (ip), vehicle: saline with Tween-80 98 % of control | dose: 100.0 mg/kg/injection, schedule: Q01DX009 (ip), vehicle: saline with Tween-80 100 % of control and 87 % of control | dose: 100.0 mg/kg/injection, schedule: Q04DX002 (ip), vehicle: saline with Tween-80 98 % of control and 102 % of control | [12] 98 % of control and 92 % of control | dose: 200.0 mg/kg/injection, schedule: Q01DX001 (ip), vehicle: saline with Tween-80 93 % of control | dose: 200.0 mg/kg/injection, schedule: Q01DX009 (ip), vehicle: saline with Tween-80 94 % of control and 95 % of control | dose: 200.0 mg/kg/injection, schedule: Q04DX002 (ip), vehicle: saline with Tween-80 94 % of control and 98 % of control | [13] 102 % of control | dose: 400.0 mg/kg/injection, schedule: Q01DX001 (ip), vehicle: saline with Tween-80 91 % of control | dose: 400.0 mg/kg/injection, schedule: Q01DX009 (ip), vehicle: saline with Tween-80 94 % of control and 90 % of control | dose: 400.0 mg/kg/injection, schedule: Q04DX002 (ip), vehicle: saline with Tween-80 96 % of control and 98 % of control | [14] 102 % of control and 87 % of control

CN(C)C(C#N)C(=O)c1ccccc1 (centres undefined)
inactive: [10] 97 % of control and 98 % of control | [11] 93 % of control

CCOC(=O)C(Cc1ccc(O)cc1)NP(=O)(OCCCl)OCCCl (centres undefined)
inactive: [1] 100 % of control | [2] 95 % of control | [3] 98 % of control | [4] 90 % of control | [5] 100 % of control | [6] 94 % of control

c1ccc(-c2nc[nH]c2-c2ccccc2)cc1
inactive: [1] 96 % of control | [2] 105 % of control | [3] 91 % of control | [4] 100 % of control | [5] 96 % of control | [6] 100 % of control

N#CC(C(N)=O)C1CC(=O)Oc2ccccc21 (centres undefined)
inactive: [7] 100 % of control | [1] 105 % of control | [3] 100 % of control

COc1ccc([N+](=O)[O-])cc1NC(=O)CCCCCCCCC(=O)Nc1cc([N+](=O)[O-])ccc1OC
inactive: dose: 100.0 mg/kg/injection, schedule: Q04DX002 (ip), vehicle: saline 102 % of control | dose: 200.0 mg/kg/injection, schedule: Q04DX002 (ip), vehicle: saline 102 % of control | dose: 400.0 mg/kg/injection, schedule: Q04DX002 (ip), vehicle: saline 109 % of control

C[N+](C)(C)CCS(=O)(=O)[O-]
inactive: [8] 90 % of control | [9] 95 % of control | dose: 400.0 mg/kg/injection, schedule: Q01DX009 (ip), vehicle: saline 95 % of control

Cc1c(C2=CC(=O)c3ccccc3C2=O)[nH]c2ccccc12
inactive: dose: 50.0 mg/kg/injection, schedule: Q01DX001 (ip), vehicle: other 93 % of control | dose: 100.0 mg/kg/injection, schedule: Q01DX001 (ip), vehicle: other 91 % of control | dose: 200.0 mg/kg/injection, schedule: Q01DX001 (ip), vehicle: other 102 % of control | dose: 400.0 mg/kg/injection, schedule: Q01DX001 (ip), vehicle: other 106 % of control

O=C(O)CCSCCSCCC(=O)O
inactive: [1] 95 % of control | [3] 90 % of control | [5] 100 % of control

c1ccc(-c2nc(N=C3N=c4ccccc4=N3)[nH]c2-c2ccccc2)cc1
inactive: [2] 112 % of control | [4] 100 % of control | [6] 96 % of control
